Data taken from patent US8349318B2, “Use of specifically engineered enzymes to enhance the efficacy of prodrugs” (The Board of Trustees of the University of Illinois, priority 2008, dated 2013).

Columns and labels:
R104Q-D133A dCK = target: T1, R104Q-D133A dCK (Homo sapiens, UniProt P27707, D133A/R104Q); test: Kinetic assay of nucleoside phosphorylation by R104Q-D133A dCK; assay type: biochemical; conditions: nucleoside 200 uM
T1 construct: made in house

dCK R104L/D133A = dCK R104L/D133A (Homo sapiens, UniProt P27707, D133A/R104L); test: Kinetic characterization of nucleoside phosphorylation by dCK R104L/D133A; conditions: Table 9
Chain of dCK R104L/D133A (P27707 whole entry R104L/D133A): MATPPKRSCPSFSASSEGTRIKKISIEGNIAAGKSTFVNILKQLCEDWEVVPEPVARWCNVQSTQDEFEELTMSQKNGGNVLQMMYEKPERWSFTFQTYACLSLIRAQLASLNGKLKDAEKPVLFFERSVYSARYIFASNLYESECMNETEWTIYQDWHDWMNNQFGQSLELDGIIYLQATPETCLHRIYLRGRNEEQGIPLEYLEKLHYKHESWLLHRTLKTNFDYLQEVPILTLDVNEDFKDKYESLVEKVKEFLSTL

T1 sequence (P27707 whole entry R104Q/D133A): as the sequence (P27707 whole entry R104L/D133A) above, with L104Q counted along it

kcat R104Q-D133A dCK (with 1 mM ATP as donor) (R104Q-D133A dCK): 0.15 s⁻¹ | kcat, R104L/D133A (dCK R104L/D133A): 3.20 ± 0.07 s⁻¹ | Km (dCK R104L/D133A; read-out: Km, R104L/D133A): 24.3 ± 3.6 µM
Compound: Cc1cn([C@H]2C[C@H](O)[C@@H](CO)O2)c(=O)[nH]c1=O [D-dT, D-thymidine]
